This is an account of results in patent publication EP0091796A1, “Process for removing 1-sulfonyl groups from benzimidazoles” (ELI LILLY AND COMPANY, priority 1982, dated 1983).

The nature of the data set: pKa determination in 66% DMF/H2O. The conditions noted are these: for pKa: 66% dmf/h2o; for pK: solvent not given.

By pKa is commonly meant the negative logarithm of the acid dissociation constant. A lower pKa goes with a group that gives up its proton readily. Under “single or first (lower) pKa”, `C/C=C(\c1ccccc1)c1ccc2nc(N)[nH]c2c1` [Example 3, trans-2-amino-5(6)-(ethylidenebenzyl)benzimidazole] came in with a pKa of 7.05.

As for `Nc1nc2ccc(C(=O)c3ccccc3)cc2[nH]1` [Example 8, 2-amino-5(6)-benzoylbenzimidazole], the pKa by setting is: (second (higher) printed pKa) 13.2; (single or first (lower) pKa) 5.7. Turning to `Nc1nc2cc(C(=O)c3ccccc3)ccc2[nH]1` [Example 7, 2-amino-5(6)-benzoylbenzimidazole], the pK runs as follows: (first (lower) printed value) 5.65; (second (higher) printed value) 13.0. `CON=C(c1ccccc1)c1ccc2nc(N)[nH]c2c1` [Example 1, 2-amino-5(6)-methoximephenylbenzimidazole] came in with a pKa (single or first (lower) pKa) of 8.88. Same read-out and setting: the value for `CC=C(c1ccccc1)c1ccc2nc(N)[nH]c2c1` [Example 2, 2-amino-5(6)-(ethylidenebenz^yl)benzimidazole] was 6.98; that for `C=C(c1ccccc1)c1ccc2nc(N)[nH]c2c1` [Example 6, 2-amino-5(6)-(methylidenebenzyl)benzimidazole] was 6.8.
